Measured values from patent publication US20110293559A1, “CATABOLIC AGENTS” (priority 2008, published 2011).
Where two headings read alike, the source gives them in different places.

Legend:
[1] = system: cartilage; conditions: in vitro, cited from earlier work
[2] = system: MMP13 gene expression; assay: qPCR MMP13 gene expression in cartilage explants; type: cell-based
Experimental: (§1) The medium was removed after the nominated time and washed once with DMEM then replaced with DMEM medium containing 50 μg/ml ascorbate, 10 mM HEPES, gentamycin and supplemented with 1× insulin-transferrin-selenium (ITS; Sigma). For qPCR studies the explants were first allowed to equilibriate in serum containing medium for 3 days, then washed 3 times in serum-free DMEM before the treatment as described above. For long term culture following 2 hour cytokine treatment explants were treated immediately following their excision from the joint, then cultured for 4 weeks in serum-free DMEM containing ITS, ascorbate, HEPES and gentamycin. The culture medium was changes 3 times a week.
Quantitative polymerase chain reaction (qPCR) using the fluorescent dye SYBR Green (Eurogentec, Belgium) was used to determine the absolute expression levels of ADAMTS4 and MMP-13 between explants. Real-time PCR reactions were carried out in 25 μl volumes in a 96-well plate (Applied Biosystems™) containing 1× buffer (10×), 3.5 mM MgCl2, 200 μM dNTPs, 0.3 μM of sense and antisense primers, 0.025 U enzyme and 1:66000 SYBR GreenI®. All reactions were made using gPCR™ Core Kit for SYBR Green I® (Eurogentec). At the end of each reaction, the cycle threshold (CT) was manually setup at the level that reflected the best kinetic PCR parameters, and melting curves were acquired and analysed. Absolute values for the gene of interest were calculated from standard curves generated using serially diluted plasmid cloned and sequence verified template (ng DNA) and were normalized to the housekeeping gene 18S rRNA.

[3] = system: immature articular cartilage explants; assay: Disc-core cartilage explant integration culture with histology; type: cell-based
From the text: as §1, with “Six millimetre diameter cartilage explants from immature articular cartilage containing 3 mm diameter inner cores, both created using punch biopsy tools (Steifel), were placed in Dulbecco's modified Eagles medium (DMEM) culture medium containing various concentrations of interleukin-1β or tumour necrosis factor α (TNFα; Peprotech), or, the culture medium without cytokine as a control. The medium” for “The medium”
Four week core and disc cultures were fixed with neutral-buffered formyl-saline and left overnight at 4 C. The explants were then processed for wax embedding. Ten micron sections were cut using a microtome, and sections dewaxed and rehydrated in a descending series of alcohols. Sections were stained with haemotoxylin (1 minute), washed in water and then stained with Safranin-O (2 minutes) washed briefly in water and then dehydrated, dipped in xylene and then mounted in DPX liquid under coverslips.

[4] = system: immature articular cartilage explants; assay: Mechanical push-out test of disc/ring interface; type: cell-based; conditions: FIG. 2, 3 weeks in culture, n=4
From the text: Six millimetre diameter cartilage explants from immature articular cartilage containing 3 mm diameter inner cores, both created using punch biopsy tools (Steifel), were placed in Dulbecco's modified Eagles medium (DMEM) culture medium containing various concentrations of interleukin-1β or tumour necrosis factor α (TNFα; Peprotech), or, the culture medium without cytokine as a control. The medium was removed after the nominated time and washed once with DMEM then replaced with DMEM medium containing 50 μg/ml ascorbate, 10 mM HEPES, gentamycin and supplemented with 1× insulin-transferrin-selenium (ITS; Sigma). For qPCR studies the explants were first allowed to equilibriate in serum containing medium for 3 days, then washed 3 times in serum-free DMEM before the treatment as described above. […]
Adhesive properties of the disc/ring interface after 3-weeks in culture were assessed using a push-out test (n=4). Thickness of the sample was measured using calipers. […] A computer activated micro-stepper controlled the displacement of the push-out rod (0.05 mm/min), whilst a load cell (100N) coupled to the rod measured the push-out force. The adhesive strength was calculated from the maximum force measured at failure per unit of interfacial area.

Row | Compound | cartilage integration ([1]; 1 pg/ml or 100 pg/ml, 14 days) | cartilage integration ([1]; 10 pg/ml, incubation of the cartilage for 14 days) | increase in MMP13 gene expression ([2]; 25 ng/ml IL1β, 2 hours, P>0.116, n=3 (FIG. 3)) | MMP13 gene expression, effect of increasing concentrations ([2]; 12.5-100 ng/ml for 2 hours) | integration between disc and core cartilages ([3]; 10 ng/ml for 24 hours, unsupplemented culture medium, cultured for a further 2 weeks (FIG. 1A)) | chondrocyte migration in the interfacial matrix ([3]; 25 ng/ml IL1β for 2 hours, then 4 weeks culture, high power histology (FIG. 9)) | integration, assessed qualitatively through retention of matrix integrity (safranin-O histology) ([3]; 25 ng/ml IL1β for 2 hours, then 4 weeks serum-free culture with ITS (FIG. 8)) | force to push out the explant from the disc versus untreated explants [4] | increase in MMP13 gene expression ([2]; 100 μM retinoic acid, 2 hour incubation, P<0.03, n=3 (FIG. 6))
1 | IL1β: catabolic cytokine, member of the interleukin-1 superfamily | not consistent | enhanced cartilage integration | 1.64 fold | increase in MMP13 gene expression | enhances integration | presence of migrating chondrocytes within the interfacial matrix | best achieved | almost six times more force | 
2 | CC1=C(/C=C/C(C)=C/C=C/C(C)=C/C(=O)O)C(C)(C)CCC1 [Retinoic acid, reference compound] |  |  |  |  |  |  |  |  | approximately 3 fold
